Holding throughout (type): cell-based
Assay [1] has as its system human embryonic lung fibroblast IMR-90. Nature of the assay: Anti-fibrosis activity test: inhibition of proliferation of human embryonic lung fibroblast IMR-90 (CCK-8). Particulars: human embryonic lung fibroblast IMR-90, CCK-8, 48 hours. The essentials:
(§1)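 IC50 values derive from CCK-8 absorbance (450 nm, 2 h reagent incubation) measured after a 48 h exposure to test compounds. Before dosing, cells plated at 2×10^4 cells/mL had attached for 24 h under 5% CO2 at 37° C; triplicate wells per concentration.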

The subject of the next assay is BHK-21 cells. Nature of the assay: Anti-fibrosis activity test: inhibition of BHK-21 cell proliferation (CCK-8). Conditions: Mesocricetus auratus, BHK-21, 48 h, CCK-8, 48 hours after administration. A digest of the protocol: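 Read-out: CCK-8 absorbance at 450 nm after 2 h, giving proliferation inhibition (1−Ai/Ao)×100% versus blank control, from which IC50 was derived. Cells had been treated with compounds for 48 h after 24 h adherence at 37° C. Pirfenidone served as positive control.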

Assay [2] has as its system human lung fibroblasts HFL1. Nature of the assay: Anti-fibrosis activity test: inhibition of proliferation of human lung fibroblasts HFL1 (CCK-8). Conditions: Homo sapiens, HFL1, 48 h, human lung fibroblasts HFL1, CCK-8, 48 hours. The essentials:
as §1

Assay [3] deals with mouse macrophages (RAW264.7). In words: Lipopolysaccharide-induced NO secretion in macrophages (Griess). Conditions: Mus musculus, RAW264.7, 24 h, RAW264.7, LPS 1 μg/ml, a/b isomers given as first/second symbol, read-out: IC50 (μM), inhibition of lipopolysaccharide-induced NO secretion in macrophages. The essentials:
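Percent inhibition of NO release was measured by Griess absorbance at 548 nm in supernatants. Cells were mouse RAW264.7 macrophages in 10% FBS DMEM, treated with graded compound concentrations and activated by LPS (1 μg/ml) for 24 h.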
A general note: Griess reagent forms a coloured azo dye with nitrite.

Assay [4] deals with human fibrosarcoma cells HT-1080. Nature of the assay: Anti-fibrosis activity test: inhibition of proliferation of human fibrosarcoma cells HT-1080 (CCK-8). Particulars: Homo sapiens, HT-1080, 48 h, human fibrosarcoma cells HT-1080, CCK-8, 48 hours. A digest of the protocol:
as §1

For assay [5], the system named is human dermal fibroblasts CCC-ESF-1. Nature of the assay: Anti-fibrosis activity test: inhibition of proliferation of human dermal fibroblasts CCC-ESF-1 (CCK-8). Particulars: Fibroblast; human dermal fibroblasts CCC-ESF-1, CCK-8, 48 hours. A digest of the protocol:
as §1

The subject of assay [6] is cardiac fibroblast RAT-iCell-C002. In words: Anti-fibrosis activity test: inhibition of proliferation of cardiac fibroblast RAT-iCell-C002 (CCK-8). Particulars: Cardiac fibroblast, 48 h, cardiac fibroblast RAT-iCell-C002, CCK-8, 48 hours. The essentials:
as §1

In assay [7] the test system is human hepatic stellate cells LX-2. In words: Anti-fibrosis activity test: inhibition of proliferation of human hepatic stellate cells LX-2 (CCK-8). Conditions: Homo sapiens, 48 h, human hepatic stellate cells LX-2, CCK-8, 48 hours. A digest of the protocol: as §1

Structures are written as SMILES.

With `O=C1c2c(nc3c(F)cccc3c2OCc2ccc(F)cc2)-c2cccn21` [Compound 452b, 5-fluoro-9-((4-fluorobenzyl)oxy)-10H-pyrrolizino[1,2-b]quinolin-10-one], the IC50 (as a rule, the concentration that inhibits the measured activity by half) in assay [1] was 0.05 to 5 mM; in the assay on BHK-21 cells it was 0.05 to 5 mM; in assay [2] it was 0.05 to 5 mM; in assay [3] it was 1 to 10 µM; in assay [4], 0.05 to 5 mM; in assay [5] it was 0.05 to 5 mM. Also, the IC50 in assay [6] and in assay [7] was 0.05 to 5 mM each time.
On to `O=C1c2c(n(Cc3ccc(Cl)cc3)c3c(F)cccc3c2=O)-c2cccn21` [Compound 453a, 4-(4-Chlorobenzyl)-5-fluoro-9H-pyrrolizino[1,2-b]quinoline-9,10(4H)-dione], for which the concentration for half-maximal inhibition (IC50) in assay [1] was in the range of 0.05 to 5 mM; in the assay with BHK-21 cells, 0.05 to 5 mM; in assay [2] it was 0.05 to 5 mM; in assay [3] it was 0.1 to 1 µM; in assay [4], 0.05 to 5 mM; in assay [5], 0.05 to 5 mM. For the same compound, the IC50 in assay [6] and in assay [7] was 0.05 to 5 mM throughout.
As for `O=C1c2c(nc3c(F)cccc3c2OCc2ccc(Cl)cc2)-c2cccn21` [Compound 453b, 9-((4-chlorobenzyl)oxy)-5-fluoro-10H-pyrrolizino[1,2-b]quinolin-10-one], the IC50 in assay [1] is 0.05 to 5 mM; in the assay with BHK-21 cells, 0.05 to 5 mM; in assay [2] it was 0.05 to 5 mM; in assay [3], 10 to 50 µM; in assay [4], 0.05 to 5 mM; in assay [5], 0.05 to 5 mM. Further, the concentration for half-maximal inhibition (IC50) in assay [6] and in assay [7] was 0.05 to 5 mM each time.
On to `N#Cc1cccc2c(=O)c3c(n(Cc4cccc(F)c4)c12)-c1cccn1C3=O` [Compound 454a, 4-(3-Fluorobenzyl)-9,10-dioxo-4,10-dihydro-9H-pyrrolizino[1,2-b]quinoline-5-carbonitrile], for which the IC50 in assay [1] was 0.05 to 5 mM; in the assay on BHK-21 cells it was 0.05 to 5 mM; in assay [2], 0.05 to 5 mM; in assay [3], 0.1 to 1 µM; in assay [4] it was 0.05 to 5 mM; in assay [5] it was 0.05 to 5 mM. Besides, the IC50 in assay [6] and in assay [7] was 0.05 to 5 mM each time.
In the case of `N#Cc1cccc2c(OCc3cccc(F)c3)c3c(nc12)-c1cccn1C3=O` [Compound 454b, 9-((3-fluorobenzyl)oxy)-10-oxo-10H-pyrrolizino[1,2-b]quinoline-5-carbonitrile], the IC50 was in the range of 0.05 to 5 mM in assay [1]; 0.05 to 5 mM in the assay on BHK-21 cells; 0.05 to 5 mM in assay [2]; 1 to 10 µM in assay [3]; 0.05 to 5 mM in assay [4]; 0.05 to 5 mM in assay [5]. In addition, the IC50 in assay [6] and in assay [7] was 0.05 to 5 mM throughout.
For `O=C1c2c(n(Cc3cccc(Cl)c3)c3c(C(F)(F)F)cccc3c2=O)-c2cccn21` [Compound 455a, 4-(3-Chlorobenzyl)-5-(trifluoromethyl)-9H-pyrrolizino[1,2-b]quinoline-9,10(4H)-dione], the 50% inhibitory concentration (IC50) in assay [1] fell in the range of 5 to 20 mM; in the assay on BHK-21 cells, 0.05 to 5 mM; in assay [2] it was 5 to 20 mM; in assay [3], 1 to 10 µM; in assay [4] it was 0.05 to 5 mM; in assay [5], 0.05 to 5 mM. For the same compound, the IC50 in assay [6] and in assay [7] was 0.05 to 5 mM in each case.
As to `O=C1c2c(nc3c(C(F)(F)F)cccc3c2OCc2cccc(Cl)c2)-c2cccn21` [Compound 455b, 9-((3-chlorobenzyl)oxy)-5-(trifluoromethyl)-10H-pyrrolizino[1,2-b]quinolin-10-one], the IC50 in assay [1] fell in the range of 0.05 to 5 mM; in the assay with BHK-21 cells it was 0.05 to 5 mM; in assay [2], 5 to 20 mM; in assay [3], 1 to 10 µM; in assay [4], 0.05 to 5 mM; in assay [5] it was 0.05 to 5 mM. Besides, the IC50 in assay [6] and in assay [7] was 0.05 to 5 mM each time.
Take `N#Cc1cccc2c(=O)c3c(n(Cc4ccccc4F)c12)-c1cccn1C3=O` [Compound 456a, 4-(2-Fluorobenzyl)-9,10-dioxo-4,10-dihydro-9H-pyrrolizino[1,2-b]quinoline-5-carbonitrile]: the IC50 is 0.05 to 5 mM in assay [1]; 0.05 to 5 mM in the assay on BHK-21 cells; 0.05 to 5 mM in assay [2]; 1 to 10 µM in assay [3]; 0.05 to 5 mM in assay [4]; 0.05 to 5 mM in assay [5]. The IC50 in assay [6] is 0.05 to 5 mM; in assay [7] it was below 0.05 mM.
For `N#Cc1cccc2c(OCc3ccccc3F)c3c(nc12)-c1cccn1C3=O` [Compound 456b, 9-((2-fluorobenzyl)oxy)-10-oxo-10H-pyrrolizino[1,2-b]quinoline-5-carbonitrile], the IC50 was 0.05 to 5 mM in assay [1]; 0.05 to 5 mM with BHK-21 cells; 0.05 to 5 mM in assay [2]; 1 to 10 µM in assay [3]; 0.05 to 5 mM in assay [4]; 0.05 to 5 mM in assay [5]. Moreover, the IC50 in assay [6] and in assay [7] was 0.05 to 5 mM each time.
`O=C1c2c(n(Cc3ccccc3Cl)c3c(C(F)(F)F)cccc3c2=O)-c2cccn21` [Compound 457a, 4-(2-Chlorobenzyl)-5-(trifluoromethyl)-9H-pyrrolizino[1,2-b]quinoline-9,10(4H)-dione]: the half-maximal inhibitory concentration (IC50) in assay [1] lay within 0.05 to 5 mM; in the assay with BHK-21 cells, 0.05 to 5 mM; in assay [2], 0.05 to 5 mM; in assay [3], 1 to 10 µM; in assay [4] it was 0.05 to 5 mM; in assay [5] it was 0.05 to 5 mM. Also, the IC50 in assay [6] was 0.05 to 5 mM; in assay [7] it was below 0.05 mM.
On to `O=C1c2c(nc3c(C(F)(F)F)cccc3c2OCc2ccccc2Cl)-c2cccn21` [Compound 457b, 9-((2-chlorobenzyl)oxy)-5-(trifluoromethyl)-10H-pyrrolizino[1,2-b]quinolin-10-one], for which the IC50 in assay [1] fell in the range of 0.05 to 5 mM; in the assay with BHK-21 cells, 0.05 to 5 mM; in assay [2] it was 0.05 to 5 mM; in assay [3], 1 to 10 µM; in assay [4], 0.05 to 5 mM; in assay [5], 0.05 to 5 mM. The IC50 in assay [6] and in assay [7] was 0.05 to 5 mM in each case.
In the case of `O=C1c2c(n(Cc3cccc(Cl)c3)c3c(Cl)cccc3c2=O)-c2cccn21` [Compound 459a, 5-Chloro-4-(3-chlorobenzyl)-9H-pyrrolizino[1,2-b]quinoline-9,10(4H)-dione], the IC50 in assay [1] is 0.05 to 5 mM; in the assay on BHK-21 cells, 0.05 to 5 mM; in assay [2] it was 0.05 to 5 mM; in assay [3], 1 to 10 µM; in assay [4], 5 to 20 mM; in assay [5] it was 0.05 to 5 mM. The IC50 in assay [6] and in assay [7] was 0.05 to 5 mM each time.
With `O=C1c2c(nc3c(Cl)cccc3c2OCc2cccc(Cl)c2)-c2cccn21` [Compound 459b, 5-chloro-9-((3-chlorobenzyl)oxy)-10H-pyrrolizino[1,2-b]quinolin-10-one], the IC50 in assay [1] was 0.05 to 5 mM; with BHK-21 cells it was 0.05 to 5 mM; in assay [2], 0.05 to 5 mM; in assay [3], 1 to 10 µM; in assay [4] it was 5 to 20 mM; in assay [5], 0.05 to 5 mM. For the same compound, the 50% inhibitory concentration (IC50) in assay [6] and in assay [7] was 0.05 to 5 mM in each case.
As for `O=C1c2c(n(Cc3ccccc3F)c3c(Cl)cccc3c2=O)-c2cccn21` [Compound 460a, 5-Chloro-4-(2-fluorobenzyl)-9H-pyrrolizino[1,2-b]quinoline-9,10(4H)-dione], the IC50 is 0.05 to 5 mM in assay [1]; below 0.05 mM in the assay with BHK-21 cells; below 0.05 mM in assay [2]; 0.1 to 1 µM in assay [3]; 0.05 to 5 mM in assay [4]; 0.05 to 5 mM in assay [5]. Also, the IC50 in assay [6] and in assay [7] was 0.05 to 5 mM in each case.
With `O=C1c2c(nc3c(Cl)cccc3c2OCc2ccccc2F)-c2cccn21` [Compound 460b, 5-chloro-9-((2-fluorobenzyl)oxy)-10H-pyrrolizino[1,2-b]quinolin-10-one], the IC50 was 0.05 to 5 mM in assay [1]; 0.05 to 5 mM with BHK-21 cells; 0.05 to 5 mM in assay [2]; 10 to 50 µM in assay [3]; 0.05 to 5 mM in assay [4]; 0.05 to 5 mM in assay [5]. Moreover, the IC50 in assay [6] and in assay [7] was 0.05 to 5 mM throughout.
Turning to `O=C1c2c(n(Cc3ccccc3Cl)c3c(Cl)cccc3c2=O)-c2cccn21` [Compound 461a, 5-Chloro-4-(2-chlorobenzyl)-9H-pyrrolizino[1,2-b]quinoline-9,10(4H)-dione], the half-inhibitory concentration (IC50) in assay [1] is 0.05 to 5 mM; with BHK-21 cells, below 0.05 mM; in assay [2], 0.05 to 5 mM; in assay [3], 1 to 10 µM; in assay [4] it was 0.05 to 5 mM; in assay [5], 0.05 to 5 mM. Further, the IC50 in assay [6] was 0.05 to 5 mM; in assay [7], below 0.05 mM.

These data come from patent publication US11040028B2, “Penicinotam derivative, preparation method and use thereof” (OCEAN UNIVERSITY OF CHINA, priority 2017, dated 2021).
